Assay results taken from PubChem BioAssay (NCI).
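Tested at 5 concentrations; 48 h exposure; 96-well plates; endpoints linearly interpolated, else capped at highest concentration. GI50: concentration for 50% inhibition of growth. TGI is the concentration that stops growth completely.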

Columns and labels:
Test in all cases: NCI tumour cell line growth inhibition, 48 h
786-0 renal = test system: 786-0 renal
A498 renal = test system: A498 renal
A549 NSCLC = test system: A549 NSCLC
ACHN renal = test system: ACHN renal
BT-549 breast = test system: BT-549 breast
CAKI-1 renal = test system: CAKI-1 renal
CCRF-CEM leukemia = test system: CCRF-CEM leukemia
COLO 205 colon = test system: COLO 205 colon
DU-145 prostate = test system: DU-145 prostate
HCC-2998 colon = test system: HCC-2998 colon
HCT-116 colon = test system: HCT-116 colon
HCT-15 colon = test system: HCT-15 colon
HL-60(TB) leukemia = test system: HL-60(TB) leukemia
HOP-62 NSCLC = test system: HOP-62 NSCLC
HOP-92 NSCLC = test system: HOP-92 NSCLC
HS 578T breast = test system: HS 578T breast
HT29 colon = test system: HT29 colon
IGROV1 ovarian = test system: IGROV1 ovarian
K-562 leukemia = test system: K-562 leukemia
KM12 colon = test system: KM12 colon
M14 melanoma = test system: M14 melanoma
MALME-3M melanoma = test system: MALME-3M melanoma
MCF7 breast = test system: MCF7 breast
MDA-MB-231 breast = test system: MDA-MB-231 breast
MDA-MB-435 = test system: MDA-MB-435
MOLT-4 leukemia = test system: MOLT-4 leukemia
NCI-H226 lung = test system: NCI-H226 lung
NCI-H23 lung = test system: NCI-H23 lung
NCI-H460 lung = test system: NCI-H460 lung
NCI/ADR-RES ovarian = test system: NCI/ADR-RES ovarian
OVCAR-3 ovarian = test system: OVCAR-3 ovarian
OVCAR-4 ovarian = test system: OVCAR-4 ovarian
OVCAR-5 ovarian = test system: OVCAR-5 ovarian
OVCAR-8 ovarian = test system: OVCAR-8 ovarian
PC-3 prostate = test system: PC-3 prostate
RPMI-8226 leukemia = test system: RPMI-8226 leukemia
RXF 393 renal = test system: RXF 393 renal
SF-268 CNS = test system: SF-268 CNS
SF-295 CNS = test system: SF-295 CNS
SF-539 CNS = test system: SF-539 CNS
SK-MEL-2 melanoma = test system: SK-MEL-2 melanoma
SK-MEL-28 melanoma = test system: SK-MEL-28 melanoma
SK-MEL-5 melanoma = test system: SK-MEL-5 melanoma
SK-OV-3 ovarian = test system: SK-OV-3 ovarian
SN12C renal = test system: SN12C renal
SNB-19 CNS = test system: SNB-19 CNS
SNB-75 CNS = test system: SNB-75 CNS
SR leukemia = test system: SR leukemia
SW-620 colon = test system: SW-620 colon
T-47D breast = test system: T-47D breast
TK-10 renal = test system: TK-10 renal
U251 CNS = test system: U251 CNS
UACC-257 melanoma = test system: UACC-257 melanoma
UACC-62 melanoma = test system: UACC-62 melanoma
UO-31 renal = test system: UO-31 renal

Work on `CN(C)c1ccc2nc3ccc(=N)cc-3sc2c1` yielded a GI50 (786-0 renal) of 11.8 µM, a TGI (786-0 renal) of 28.7 µM and a GI50 (A498 renal) of 2.02 µM. For the same molecule, the TGI (A498 renal) was 39.5 µM, the GI50 (A549 NSCLC) was 2.37 µM and the TGI (A549 NSCLC) was 13.9 µM. It also gave a GI50 (ACHN renal) of 5.43 µM, a TGI (ACHN renal) of 39.8 µM and a GI50 (BT-549 breast) of 7.74 µM. The TGI (BT-549 breast) was 69 µM, the GI50 (CAKI-1 renal) was 4.21 µM and the TGI (CAKI-1 renal) was 19.3 µM. It also gave a GI50 (CCRF-CEM leukemia) of 2.15 µM, a TGI (CCRF-CEM leukemia) of over 100 µM and a GI50 (COLO 205 colon) of 2.73 µM. It also gave a TGI (COLO 205 colon) of 10.3 µM, a GI50 (DU-145 prostate) of 14.3 µM and a TGI (DU-145 prostate) of 28.3 µM. It also gave a GI50 (HCC-2998 colon) of 8.39 µM, a TGI (HCC-2998 colon) of over 100 µM and a GI50 (HCT-116 colon) of 2.38 µM. The TGI (HCT-116 colon) was 12.5 µM, the GI50 (HCT-15 colon) was 3.07 µM and the TGI (HCT-15 colon) was 24.4 µM. For the same molecule, the GI50 (HL-60(TB) leukemia) was 7.53 µM, the TGI (HL-60(TB) leukemia) was 32.9 µM and the GI50 (HOP-62 NSCLC) was 6.87 µM. It also gave a TGI (HOP-62 NSCLC) of 51.5 µM, a GI50 (HOP-92 NSCLC) of 3.79 µM and a TGI (HOP-92 NSCLC) of 41.6 µM. The GI50 (HS 578T breast) was 11.4 µM, the TGI (HS 578T breast) was 39.5 µM and the GI50 (HT29 colon) was 21.6 µM. The TGI (HT29 colon) was 63.5 µM, the GI50 (IGROV1 ovarian) was 8.59 µM and the TGI (IGROV1 ovarian) was 35.9 µM. It also gave a GI50 (K-562 leukemia) of 2.61 µM, a TGI (K-562 leukemia) of over 100 µM and a GI50 (KM12 colon) of 3.67 µM. It also gave a TGI (KM12 colon) of 21.7 µM, a GI50 (M14 melanoma) of 3.9 µM and a TGI (M14 melanoma) of 14.3 µM. It also gave a GI50 (MALME-3M melanoma) of 2.26 µM, a TGI (MALME-3M melanoma) of 7.67 µM and a GI50 (MCF7 breast) of 1.91 µM. For the same molecule, the TGI (MCF7 breast) was 6.29 µM, the GI50 (MDA-MB-231 breast) was 1.88 µM and the TGI (MDA-MB-231 breast) was 11.8 µM. For the same molecule, the GI50 (MDA-MB-435) was 1.75 µM, the TGI (MDA-MB-435) was 3.63 µM and the GI50 (MOLT-4 leukemia) was 3.47 µM. The TGI (MOLT-4 leukemia) was over 100 µM, the GI50 (NCI-H226 lung) was 12.1 µM and the TGI (NCI-H226 lung) was 28.8 µM. For the same molecule, the GI50 (NCI-H23 lung) was 3.3 µM, the TGI (NCI-H23 lung) was 49.5 µM and the GI50 (NCI-H460 lung) was 7.06 µM. The TGI (NCI-H460 lung) was over 100 µM, the GI50 (NCI/ADR-RES ovarian) was 3.11 µM and the TGI (NCI/ADR-RES ovarian) was 48.3 µM. For the same molecule, the GI50 (OVCAR-3 ovarian) was 2.75 µM, the TGI (OVCAR-3 ovarian) was 12 µM and the GI50 (OVCAR-4 ovarian) was 1.04 µM. The TGI (OVCAR-4 ovarian) was 2.47 µM, the GI50 (OVCAR-5 ovarian) was 11 µM and the TGI (OVCAR-5 ovarian) was 29.4 µM. For the same molecule, the GI50 (OVCAR-8 ovarian) was 2.14 µM, the TGI (OVCAR-8 ovarian) was 12 µM and the GI50 (PC-3 prostate) was 1.03 µM. The TGI (PC-3 prostate) was 14.2 µM, the GI50 (RPMI-8226 leukemia) was 1.21 µM and the TGI (RPMI-8226 leukemia) was 25.7 µM. The GI50 (RXF 393 renal) was 10.4 µM, the TGI (RXF 393 renal) was 26.8 µM and the GI50 (SF-268 CNS) was 4.13 µM. For the same molecule, the TGI (SF-268 CNS) was 20 µM, the GI50 (SF-295 CNS) was 5.98 µM and the TGI (SF-295 CNS) was 21.2 µM. The GI50 (SF-539 CNS) was 2.2 µM, the TGI (SF-539 CNS) was 5.12 µM and the GI50 (SK-MEL-2 melanoma) was 9.24 µM. The TGI (SK-MEL-2 melanoma) was 26.8 µM, the GI50 (SK-MEL-28 melanoma) was 11.9 µM and the TGI (SK-MEL-28 melanoma) was 27.7 µM. It also gave a GI50 (SK-MEL-5 melanoma) of 1.51 µM, a TGI (SK-MEL-5 melanoma) of 5.78 µM and a GI50 (SK-OV-3 ovarian) of 10.6 µM. It also gave a TGI (SK-OV-3 ovarian) of 38.7 µM, a GI50 (SN12C renal) of 2.37 µM and a TGI (SN12C renal) of 8.06 µM. The GI50 (SNB-19 CNS) was 2.86 µM, the TGI (SNB-19 CNS) was 21.1 µM and the GI50 (SNB-75 CNS) was 3.29 µM. The TGI (SNB-75 CNS) was 15.4 µM, the GI50 (SR leukemia) was 6.86 µM and the TGI (SR leukemia) was over 100 µM. It also gave a GI50 (SW-620 colon) of 2.83 µM, a TGI (SW-620 colon) of 12.9 µM and a GI50 (T-47D breast) of 3.63 µM. The TGI (T-47D breast) was 21.3 µM, the GI50 (TK-10 renal) was 7.76 µM and the TGI (TK-10 renal) was 31.4 µM. The GI50 (U251 CNS) was 2.71 µM, the TGI (U251 CNS) was 10.5 µM and the GI50 (UACC-257 melanoma) was 2.6 µM. It also gave a TGI (UACC-257 melanoma) of 9.71 µM, a GI50 (UACC-62 melanoma) of 2.66 µM and a TGI (UACC-62 melanoma) of 8.19 µM. It also gave a GI50 (UO-31 renal) of 11.6 µM and a TGI (UO-31 renal) of 31.2 µM.
